US20240336574A1 (LATIGO BIOTHERAPEUTICS, INC., priority 2021, published 2024)
Like-named read-outs stand apart in the source and are kept apart here.

Target: T1, recombinant human NaV1.8 stably transfected HEK cells (Homo sapiens, UniProt Q9Y5Y9)
T1 construct: expressed in transfected cells; host or cells: HEK cells, stably transfected
Assay: Compound profiling on NaV1.8, human NaV1.8 cell line, SyncroPatch384PE automated patch clamp assay (Example 102, first set of compounds, Table 16)
Format: cell-based
Conditions: human NaV1.8 HEK cells, Table 16 (first set of compounds)
Summary of the method: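 Automated whole-cell patch clamp on HEK cells precultured at 30 °C one day before recording; CsF-based internal, 140 mM NaCl external. 10-point curve, 20–0.001 μM final, 0.1% DMSO, 5 min exposure. IC50 for resting (P1, −120 mV hold) and inactivated (P2, after 10 s at −40 mV) block, normalized to 250 μM tetracaine and DMSO.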

[1] = inactivated state block (P2 measurement), read-out: P2IC50
[2] = resting state block (P1 measurement), read-out: P1IC50

T1 sequence (Q9Y5Y9 whole entry): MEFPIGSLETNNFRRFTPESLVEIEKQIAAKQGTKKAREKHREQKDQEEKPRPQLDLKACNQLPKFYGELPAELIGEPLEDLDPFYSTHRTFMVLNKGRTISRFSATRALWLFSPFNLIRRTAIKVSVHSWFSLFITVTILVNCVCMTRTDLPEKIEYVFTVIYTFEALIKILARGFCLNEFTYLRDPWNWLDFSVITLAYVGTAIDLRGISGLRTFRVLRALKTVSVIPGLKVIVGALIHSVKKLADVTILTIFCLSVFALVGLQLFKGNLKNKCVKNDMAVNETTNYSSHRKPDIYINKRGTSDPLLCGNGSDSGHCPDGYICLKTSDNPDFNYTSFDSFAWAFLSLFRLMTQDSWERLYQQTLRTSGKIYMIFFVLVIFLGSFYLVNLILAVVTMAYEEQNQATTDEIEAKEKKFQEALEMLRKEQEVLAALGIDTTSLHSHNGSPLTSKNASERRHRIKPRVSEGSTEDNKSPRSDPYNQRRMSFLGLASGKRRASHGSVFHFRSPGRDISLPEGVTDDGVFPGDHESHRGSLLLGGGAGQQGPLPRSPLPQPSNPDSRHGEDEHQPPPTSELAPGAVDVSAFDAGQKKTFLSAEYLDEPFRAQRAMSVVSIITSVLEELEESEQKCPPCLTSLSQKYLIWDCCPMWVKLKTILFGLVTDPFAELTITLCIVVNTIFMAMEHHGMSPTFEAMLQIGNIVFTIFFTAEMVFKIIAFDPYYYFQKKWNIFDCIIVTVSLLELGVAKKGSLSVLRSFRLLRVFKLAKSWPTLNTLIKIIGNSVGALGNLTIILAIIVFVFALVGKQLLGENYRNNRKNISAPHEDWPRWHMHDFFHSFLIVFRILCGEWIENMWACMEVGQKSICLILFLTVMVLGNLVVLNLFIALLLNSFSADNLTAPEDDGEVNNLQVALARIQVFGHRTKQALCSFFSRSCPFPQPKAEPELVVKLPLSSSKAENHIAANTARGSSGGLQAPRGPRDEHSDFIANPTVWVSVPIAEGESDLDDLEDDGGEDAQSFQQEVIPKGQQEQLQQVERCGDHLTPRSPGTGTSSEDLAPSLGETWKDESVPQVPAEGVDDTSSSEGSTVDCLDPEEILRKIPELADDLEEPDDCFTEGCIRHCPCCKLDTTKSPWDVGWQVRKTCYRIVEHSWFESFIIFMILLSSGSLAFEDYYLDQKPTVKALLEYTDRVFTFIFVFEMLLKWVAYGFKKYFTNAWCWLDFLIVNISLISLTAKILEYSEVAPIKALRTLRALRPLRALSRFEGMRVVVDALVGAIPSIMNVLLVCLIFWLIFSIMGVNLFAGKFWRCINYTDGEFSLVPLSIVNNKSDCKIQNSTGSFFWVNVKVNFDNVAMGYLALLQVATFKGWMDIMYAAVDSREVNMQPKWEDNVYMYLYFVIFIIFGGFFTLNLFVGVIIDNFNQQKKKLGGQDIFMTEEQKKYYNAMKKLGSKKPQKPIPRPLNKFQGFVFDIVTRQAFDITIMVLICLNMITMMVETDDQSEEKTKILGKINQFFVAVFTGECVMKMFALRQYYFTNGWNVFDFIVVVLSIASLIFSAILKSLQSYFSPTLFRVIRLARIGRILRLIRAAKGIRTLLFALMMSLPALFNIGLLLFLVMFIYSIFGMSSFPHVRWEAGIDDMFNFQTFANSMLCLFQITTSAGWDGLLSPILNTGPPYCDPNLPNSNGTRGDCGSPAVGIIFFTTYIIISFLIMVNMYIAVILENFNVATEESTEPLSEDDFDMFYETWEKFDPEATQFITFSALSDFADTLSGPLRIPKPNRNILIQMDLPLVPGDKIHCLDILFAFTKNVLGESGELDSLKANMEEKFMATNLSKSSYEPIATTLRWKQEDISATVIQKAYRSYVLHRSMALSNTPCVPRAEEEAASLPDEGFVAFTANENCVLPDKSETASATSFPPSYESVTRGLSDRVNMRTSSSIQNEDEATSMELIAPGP

Structure (SMILES)	IC50 [1] [µM]	IC50 [2] [µM]
CS(=O)(=O)c1cccc(NC(=O)c2cc(C(F)(F)F)cnc2Oc2ccc(OC(F)F)cc2)c1 [Compound 1563, 2-[4-(difluoromethoxy)phenoxy]-N-(3-methylsulfonylphenyl)-5-(trifluoromethyl)pyridine-3-carboxamide]	0.02 to 0.04	0.02 to 0.04
CS(=N)(=O)c1cccc(NC(=O)c2cc(C(F)(F)F)cnc2Oc2ccc(C(F)(F)F)cc2)c1 (centres unmarked) [Compound 1564, N-[3-(methylsulfonimidoyl)phenyl]-5-(trifluoromethyl)-2-[4-(trifluoromethyl)phenoxy]pyridine-3-carboxamide]	0.04 to 0.2	0.02 to 0.04
Cc1nc(OC2CCC2)ccc1Oc1ncc(C(F)(F)F)cc1C(=O)Nc1cccc(C(N)=O)c1 [Compound 1565, N-(3-carbamoylphenyl)-2-[[6-(cyclobutoxy)-2-methyl-3-pyridyl]oxy]-5-(trifluoromethyl)pyridine-3-carboxamide]	0.2 to 0.5	0.2 to 0.5
Cc1nc(OC2CCC2)ccc1Oc1ncc(C(F)(F)F)cc1C(=O)Nc1ccc(C(N)=O)cc1 [Compound 1566, N-(4-carbamoylphenyl)-2-[[6-(cyclobutoxy)-2-methyl-3-pyridyl]oxy]-5-(trifluoromethyl)pyridine-3-carboxamide]	0.2 to 0.5	0.2 to 0.5
COc1c(Oc2ncc(Br)cc2C(=O)Nc2cccc(S(C)(=N)=O)c2)ccc(F)c1F (centres unmarked) [Compound 1567, 5-bromo-2-(3,4-difluoro-2-methoxy-phenoxy)-N-[3-(methylsulfonimidoyl)phenyl]pyridine-3-carboxamide]	≤ 0.02	≤ 0.02
COc1c(Oc2ncc(Br)cc2C(=O)Nc2ccc(C(N)=O)cc2)ccc(F)c1F [Compound 1569, 5-bromo-N-(4-carbamoylphenyl)-2-(3,4-difluoro-2-methoxy-phenoxy)pyridine-3-carboxamide]	≤ 0.02	≤ 0.02
Cc1cc(OC(F)(F)F)ccc1Oc1ncc(C(F)(F)F)cc1C(=O)Nc1cccc(S(C)(=O)=O)c1 [Compound 1573, N-(3-methylsulfonylpheny1)-2-[2-methyl-4-(trifluoromethoxy)phenoxy]-5-(trifluoromethyl)pyridine-3-carboxamide]	≤ 0.02	≤ 0.02
Cc1cc(F)ccc1Oc1ncc(C(F)(F)F)cc1C(=O)Nc1cccc(S(C)(=O)=O)c1 [Compound 1574, 2-(4-fluoro-2-methyl-phenoxy)-N-(3-methylsulfonylphenyl)-5-(trifluoromethyl)pyridine-3-carboxamide]	≤ 0.02	≤ 0.02
COc1cc(F)ccc1Oc1ncc(C(F)(F)F)cc1C(=O)Nc1cccc(S(C)(=O)=O)c1 [Compound 1575]	≤ 0.02	≤ 0.02
COc1cc(F)ccc1Oc1ncc(C(F)(F)F)cc1C(=O)Nc1cc(S(C)(=O)=O)ccc1F [Compound 1576]	0.04 to 0.2	0.04 to 0.2
CSc1cccc(NC(=O)c2cc(Br)cnc2Oc2ccc(F)cc2C)c1 [Compound 1577]	0.2 to 0.5	0.2 to 0.5
Cc1cc(F)ccc1Oc1ncc(C#N)cc1C(=O)Nc1cccc(S(C)(=N)=O)c1 (centres unmarked) [Compound 1578]	0.2 to 0.5	0.2 to 0.5
CSc1cccc(NC(=O)c2cc(C#N)cnc2Oc2ccc(F)cc2C)c1 [Compound 1579]	0.2 to 0.5	0.2 to 0.5
CS(=O)(=O)c1cccc(NC(=O)c2cc(C(F)(F)F)cnc2Oc2cncc3ccccc23)c1 [Compound 1581]	0.2 to 0.5	0.2 to 0.5
CS(=O)(=O)c1cccc(NC(=O)c2cc(C(F)(F)F)cnc2Oc2cnc(Cl)c3ccccc23)c1 [Compound 1582]	0.2 to 0.5	0.2 to 0.5
CS(=O)(=O)c1cccc(NC(=O)c2cc(C(F)(F)F)cnc2Oc2ccc(F)c3cnccc23)c1 [Compound 1583]	0.02 to 0.04	0.02 to 0.04
CS(=N)(=O)c1cccc(NC(=O)c2cc(C(F)(F)F)cnc2Oc2ccc(-c3ccccc3)cc2)c1 (centres unmarked) [Compound 1585]	0.2 to 0.5	0.2 to 0.5
CS(=N)(=O)c1cccc(NC(=O)c2cc(C(F)(F)F)cnc2Oc2ccc(-n3ccnc3)cc2)c1 (centres unmarked) [Compound 1586]	0.2 to 0.5	0.2 to 0.5
CS(=N)(=O)c1cccc(NC(=O)c2cc(C(F)(F)F)cnc2Oc2ccc(OCc3ccccc3)cc2)c1 (centres unmarked) [Compound 1587]	0.04 to 0.2	0.04 to 0.2
CS(=N)(=O)c1cccc(NC(=O)c2cc(C(F)(F)F)cnc2Oc2ccc(OC3CC3)cc2)c1 (centres unmarked) [Compound 1588]	0.04 to 0.2	0.04 to 0.2
Cc1nc(F)ccc1Oc1ncc(C(F)(F)F)cc1C(=O)Nc1cccc(S(C)(=N)=O)c1 (centres unmarked) [Compound 1589]	0.04 to 0.2	0.04 to 0.2
Cc1nn(C)cc1Oc1ncc(C(F)(F)F)cc1C(=O)Nc1cccc(S(C)(=N)=O)c1 (centres unmarked) [Compound 1590]	0.2 to 0.5	0.2 to 0.5
COc1ccc(Oc2ncc(C(F)(F)F)cc2C(=O)Nc2cccc(S(C)(=N)=O)c2)cc1C#N (centres unmarked) [Compound 1591]	0.2 to 0.5	0.2 to 0.5
COc1cc(C#N)cc(Oc2ncc(C(F)(F)F)cc2C(=O)Nc2cccc(S(C)(=N)=O)c2)c1 (centres unmarked) [Compound 1592]	0.2 to 0.5	0.2 to 0.5
Cc1cc(C(F)(F)F)ccc1Oc1ncc(C(F)(F)F)cc1C(=O)Nc1cccc(S(C)(=O)=O)c1 [Compound 1595]	≤ 0.02	0.02 to 0.04
Cc1cc(F)ccc1COc1ncc(C(F)(F)F)cc1C(=O)Nc1cccc(S(C)(=O)=O)c1 [Compound 1596]	0.2 to 0.5	0.2 to 0.5

Structure (SMILES)	IC50 [1] [µM]	IC50 [2] [µM]
CS(=O)(=O)c1cccc(NC(=O)c2cc(C(F)(F)F)cnc2Oc2ccn3ccnc3c2)c1 [Compound 1597]	0.2 to 0.5	0.2 to 0.5
CS(=O)(=O)c1cccc(NC(=O)c2cc(C(F)(F)F)cnc2Oc2ccc3c(c2)CC(=O)N3)c1 [Compound 1598]	0.2 to 0.5	0.2 to 0.5
CS(=O)(=O)c1cccc(NC(=O)c2cc(C(F)(F)F)cnc2Oc2cccn3ccnc23)c1 [Compound 1599]	0.2 to 0.5	0.2 to 0.5
CCOc1ncc(C(F)(F)F)cc1C(=O)Nc1cccc(S(C)(=O)=O)c1 [Compound 1600]	0.2 to 0.5	0.2 to 0.5
CS(=O)(=O)c1cccc(NC(=O)c2cc(C(F)(F)F)cnc2Oc2ccc3c(c2)NC(=O)C3)c1 [Compound 1601]	0.2 to 0.5	0.2 to 0.5
CS(=O)(=O)c1cccc(NC(=O)c2cc(C(F)(F)F)cnc2OCC2CC2)c1 [Compound 1602]	0.2 to 0.5	0.2 to 0.5
COc1nc(Br)ccc1Oc1ncc(C(F)(F)F)cc1C(=O)Nc1cccc(S(C)(=O)=O)c1 [Compound 1603]	≤ 0.02	≤ 0.02
CS(=O)(=O)c1cccc(NC(=O)c2cc(C(F)(F)F)cnc2OCCC(F)(F)F)c1 [Compound 1604]	0.2 to 0.5	0.04 to 0.2
CS(=O)(=O)c1cccc(NC(=O)c2cc(C(F)(F)F)cnc2OCC2CCC2(F)F)c1 (centres unmarked) [Compound 1605]	0.2 to 0.5	0.2 to 0.5
CS(=O)(=O)c1cccc(NC(=O)c2cc(C(F)(F)F)cnc2OC2CCC(=O)NC2)c1 (centres unmarked) [Compound 1606]	0.2 to 0.5	0.2 to 0.5
COc1nc(C)ccc1Oc1ncc(C(F)(F)F)cc1C(=O)Nc1cccc(S(C)(=O)=O)c1 [Compound 1608]	≤ 0.02	≤ 0.02
CCOc1ccc(Oc2ncc(C(F)(F)F)cc2C(=O)Nc2cccc(S(C)(=N)=O)c2)cc1 (centres unmarked) [Compound 1609]	0.04 to 0.2	0.04 to 0.2
Cn1cc(Oc2ncc(C(F)(F)F)cc2C(=O)Nc2cccc(S(C)(=O)=O)c2)cn1 [Compound 1610]	0.2 to 0.5	0.2 to 0.5
Cc1nn(C)c(C)c1Oc1ncc(C(F)(F)F)cc1C(=O)Nc1cccc(S(C)(=O)=O)c1 [Compound 1611]	0.2 to 0.5	0.2 to 0.5
COc1cc(F)c(F)cc1Oc1ncc(C(F)(F)F)cc1C(=O)Nc1cccc(S(C)(=O)=O)c1 [Compound 1615]	≤ 0.02	≤ 0.02
Cc1cc(C(F)(F)F)c(C)cc1Oc1ncc(C(F)(F)F)cc1C(=O)Nc1cccc(S(C)(=O)=O)c1 [Compound 1616]	0.2 to 0.5	0.2 to 0.5
COc1cc(F)c(F)cc1Oc1ncc(C(F)(F)F)cc1C(=O)Nc1cccc(S(C)(=N)=O)c1 (centres unmarked) [Compound 1617]	0.02 to 0.04	0.02 to 0.04
COc1c(Oc2ncc(C(F)(F)F)cc2C(=O)Nc2cccc(S(C)(=N)=O)c2)ccc(F)c1Cl (centres unmarked) [Compound 1618]	≤ 0.02	≤ 0.02
COc1c(Oc2ncc(C(F)(F)F)cc2C(=O)Nc2cccc(C(N)=O)c2)ccc(F)c1F [Compound 1619]	≤ 0.02	≤ 0.02
COc1ccc(C#N)cc1Oc1ncc(C(F)(F)F)cc1C(=O)Nc1cccc(S(C)(=N)=O)c1 (centres unmarked) [Compound 1620]	0.2 to 0.5	0.2 to 0.5
COc1cc(C)c(Oc2ncc(C(F)(F)F)cc2C(=O)Nc2cccc(S(C)(=N)=O)c2)cc1C#N (centres unmarked) [Compound 1621]	0.2 to 0.5	0.2 to 0.5
COc1ncc(C(N)=O)cc1Oc1ncc(C(F)(F)F)cc1C(=O)Nc1cccc(S(C)(=N)=O)c1 (centres unmarked) [Compound 1622]	0.2 to 0.5	0.2 to 0.5
COc1ncc(C#N)cc1Oc1ncc(C(F)(F)F)cc1C(=O)Nc1cccc(S(C)(=N)=O)c1 (centres unmarked) [Compound 1623]	0.2 to 0.5	0.2 to 0.5
Cn1ccc2c(Oc3ncc(C(F)(F)F)cc3C(=O)Nc3cccc(S(C)(=O)=O)c3)cccc21 [Compound 1624]	0.2 to 0.5	0.2 to 0.5
Cc1ccc2c(Oc3ncc(C(F)(F)F)cc3C(=O)Nc3cccc(S(C)(=O)=O)c3)cccc2n1 [Compound 1625]	0.2 to 0.5	0.2 to 0.5
CS(=O)(=O)c1cccc(NC(=O)c2cc(C(F)(F)F)cnc2Oc2cccc3c2OCCC3)c1 [Compound 1626]	0.2 to 0.5	0.2 to 0.5
